From publication PMC8139947, “Novel late-stage radiosynthesis of 5-[18F]-trifluoromethyl-1,2,4-oxadiazole (TFMO) containing molecules for PET imaging” (Scientific Reports, 2021)

Assays:
[1] = Aqueous solubility / formulation for in vivo studies; assay type: physicochemical; conditions: high concentration of DMSO (~ 50%) needed to solubilise the tracer
[2] = Partition coefficient (LogD), octanol/PBS shake flask method; assay type: physicochemical; conditions: octanol / phosphate buffer pH 7.4, shake flask, radioactivity counted by gamma-counter; read-out: LogD (observed)
From the text: We determined the partition coefficients (LogD) using the octanol/PBS shake flask method.

CC(C)(CNC(=O)c1cccc(-c2noc(C(F)(F)[18F])n2)c1)c1coc(-c2ccccc2)n1 [[^18F]TMP195, N-(2-methyl-2-(2-phenyloxazol-4-yl)propyl)-3-(5-([18F]trifluoromethyl)-1,2,4-oxadiazol-3-yl)benzamide]
aqueous solubility [1]: poor | logD [2]: > 6
